According to patent US20100215618A1, “NOVEL COMPOUNDS - 644” (Arrow Therapeutics Limited, priority 2009, published 2010):
Where two headings read alike, the source gives them in different places.

Assays:
[1] = tested on: HCV replicon cells Huh 9B (genotype 1b); assay: 1b Replicon Assay (luciferase readout); format: cell-based; settings: Hepatitis C virus, Huh 9B replicon cells, 72 h, luciferase activity
in vitro = in vitro ADME, Canine; settings: dog, MDCK
Procedure: Cells used: MDCK (Madin-Darby Canine Kidney) cells, ATCC collection # CCL-34, are used to model the intestinal barrier. Cell culture conditions: cells were cultured at 37° C. in a 5% CO2 environment and split twice a week on seeding at 4×10^5 cells/flask (75 cm^2) on day 1 and 2×10^5 cells/flask on day 4. The culture medium consisted of MEM+Earle's-L Glutamine (Gibco #21090-022) supplemented with 10% Australian Fetal Calf Serum (Sigma #F6178), 2 mM L-Glutamine (Gibco #25030-024) and 1× Non Essential Amino Acids (Gibco #11140-035)
On day 1, a 24-well plate (Sarstedt, #83.1836.300) was filled with individual 3 lam pore membrane inserts (Millipore, #PITP 012 50). Each plate allows the testing of a cocktail of 3 control compounds and 11 test compounds in duplicate. The wells (outside the inserts) were filled with 500 μl of culture medium.
A flask of cells was trypsinised and a cell count carried out. Cells were diluted to 1.2×10^5 cells/ml (1×10^5 cells/cm^2) and 500 μl dispensed in each insert on the 24-well plate. The plate was incubated at 37° C. in a 5% CO2 environment for 48 hours.
On day 3, the culture medium was removed from the wells, then the inserts and is replaced with fresh culture medium in the wells, then the inserts (500111 per well and insert) The plate was incubated at 37° C. in a 5% CO2 environment for 24 hours.
On day 4, the controls cocktail and test compounds solutions were made up in HBSS buffer (Hank's Balanced Salt Solution, Gibco #14025-050) at 1011M. The final controls and test compounds concentration in the assay was 10 μM, and DMSO concentration maintained at 0.1% (0.3% for the controls cocktail). The controls cocktail was made up of Atenolol (Sigma # A-7655), Dexamethasone (Sigma #D-1756) and Propranolol (Sigma # P-0884).
A 24-well plate was filled with 500 μl of HBSS buffer per well (assay plate) The culture medium was removed from the wells and inserts. The inserts were washed three times with approximately 500 μl of HBSS buffer. The inserts were transferred to the assay plate. Controls cocktail and test compounds solutions were dispensed inside the inserts (500 μl per insert), in duplicates. The assay plate was incubated at 37° C. in a 5% CO2 environment for 2 hours.
After 2 hours, the inserts were removed from the assay plate and transferred into a new 24-well plate (wash plate) The assay plate containing the receiver solutions was left aside for later sampling. To measure the mass balance, 150 μl were sampled from each insert (donor solutions) and dispensed into 150 μl of HPLC-grade Acetonitrile (Fisher Scientific) containing an internal standard and 0.05% formic acid.
The donor solutions were aspirated and discarded from each insert, and the inserts washed once with approximately 500 μl of HBSS buffer. A 24-well plate was filled with 500 μl of HBSS buffer per well (monolayer integrity plate) A Lucifer Yellow (Sigma #L0144) solution was made up at 1001.1M in HBSS buffer. The empty inserts were transferred into the monolayer integrity plate and filled with 500 μl of the Lucifer Yellow solution to determine the cell monolayers integrity and leftover of the solution was kept in a fridge. The plate was incubated at 37° C. in a 5% CO2 environment for 2 hours.
In the meantime, 150 μl were sampled from the assay plate (receiver solutions) and dispensed into 150 μl of HPLC-grade Acetonitrile containing an internal standard and 0.05% formic acid. A calibration curve was made for each mix of compounds (as appropriate depending on compounds molecular weights) A 10 μM mix of compounds in HBSS buffer was diluted 1:1 in HPLC-grade Acetonitrile containing an internal standard and 0.05% formic acid. A 1:1 mix of HBSS buffer and HPLC-grade Acetonitrile containing an internal standard and 0.05% formic acid was made up and used to make up the calibration curve (2 fold dilutions), with concentrations ranging from 10 μM to 0.078 μM. […]

[2] = tested on: HCV replicon cells Huh 9B; format: cell-based; settings: Huh 9B replicon cells, 72 h, methylene blue, total cell area reduced by 50%
Procedure: HCV replicon cells Huh 9B (ReBlikon), containing the firefly luciferase-ubiquitin-neomycin phosphotransferase fusion protein and EMCV-IRES driven HCV polyprotein with cell culture adaptive mutations.
Replicon cells were trypsinised and counted. Cells were diluted to 100,000 cells/ml and 100 μl used to seed one opaque white 96-well plate (for the replicon assay) and one flat-bottomed clear plate (for the tox assay) for every five compounds to be tested for IC50. Wells G12 and H12 were left empty in the clear plate as the blank. Plates were then incubated at 37° C./5% CO2 for 24 h.
On the following day compound dilutions were prepared in medium at twice their desired final concentration in a clear round bottomed plate. All dilutions have a final DMSO concentration of 1%.
Controls and compounds were transferred from the dilution plates to the assay plates (containing the cells) at 100 μl/well in duplicate wells.
Exception: no compound was added to wells A1 and A2 of either plate and 100 μl of 1% DMSO was added to these instead. Plates were then incubated at 37° C./5% CO2 for 72 h.
The clear plate was stained with 100 μA 0.5% methylene blue in 50% ethanol at room temperature for 1 h, followed by solvation of the absorbed methylene blue in 100 μl per well of 1% lauroylsarcosine. Absorbance of the plate was measured on a microplate spectrophotometer (Molecular Devices) and the absorbance for each concentration of compound expressed as a proportion of the relative DMSO control. The TD50, the is concentration of drug required to reduce the total cell area by 50% relative to the DMSO controls, was calculated by plotting the absorbance at 620 nm after background substraction against drug concentration.

[3] = tested on: HCV genotype 1a replicon cells Htat2ANeo; assay: 1a Replicon Assay (cell-based anti-NS5a ELISA); settings: Hepatitis C virus, 72 h
Summary of the method: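 HCV 1a Htat2ANeo replicon cells (Et2AN control cells) exposed to compound for 72 h at 37° C without G418/blasticidin. NS5a quantified by cell-based ELISA (anti-NS5a, HRP/OPD, A490); IC50 from percentage reduction versus untreated control. Cytotoxicity TD50 by Cell Titre Blue fluorescence (ex 570/em 590 nm) versus DMSO controls.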

[4] = read-out: pIC50 1b Replicon (converted)
[5] = read-out: pIC50 1a Replicon (converted)

SMILES | IC50 ([1]; read-out: HCV IC50 1b Replicon) | IC50 [1, 4] | Papp at 2 h, 10 µM (in vitro) | HCV TD50 Replicon [2] | IC50 ([3]; read-out: HCV IC50 Elisa 1a) | IC50 [3, 5]
COC(=O)N[C@@H](C(=O)N1CCC[C@H]1c1ncc(-c2ccc(-c3ccc(C(=O)Nc4ccc(CN5CCS(=O)(=O)CC5)cc4)cc3)cc2)[nH]1)C(C)C [Example 13, Methyl N-[(1R)-1-[(2S)-2-[5-[4-[4-[[4-[(1,1-dioxo-1,4-thiazinan-4-yl)methyl]phenyl]carbamoyl]phenyl]phenyl]-1H-imidazol-2-yl]pyrrolidine-1-carbonyl]-2-methyl-propyl]carbamate] | 42.2 nM | 41.7 nM | 0.3 ×10⁻⁶ cm/s | >25 µM |  | 
COC(=O)N[C@H](CC(C)C)C(=O)N1CCC[C@H]1c1ncc(-c2ccc(-c3ccc(C(=O)Nc4ccc(CN5CCS(=O)(=O)CC5)cc4)cc3)cc2)[nH]1 [Example 15, Methyl N-[(1R)-1-[(2S)-2-[5-[4-[4-[[4-[(1,1-dioxo-1,4-thiazinan-4-yl)methyl]phenyl]carbamoyl]phenyl]phenyl]-1H-imidazol-2-yl]pyrrolidine-1-carbonyl]-3-methyl-butyl]carbamate] | 3.84 nM | 3.8 nM | 0.3 ×10⁻⁶ cm/s | >25 µM |  | 
COC(=O)N[C@@H](C)C(=O)N1CCC[C@@H]1c1ncc(-c2ccc(-c3ccc(C(=O)Nc4ccc(CN5CCS(=O)(=O)CC5)cc4)cc3)cc2)[nH]1 [Example 21, Methyl N-[(1S)-2-[(2R)-2-[5-[4-[4-[[4-[(1,1-dioxo-1,4-thiazinan-4-yl)methyl]phenyl]carbamoyl]phenyl]phenyl]-1H-imidazol-2-yl]pyrrolidin-1-yl]-1-methyl-2-oxo-ethyl]carbamate] | 418 nM | 417 nM | 1.4 ×10⁻⁶ cm/s |  |  | 
COC(=O)N[C@H](C(=O)N1CCC[C@@H]1c1ncc(-c2ccc(-c3ccc(C(=O)Nc4ccc(CN5CCS(=O)(=O)CC5)cc4)cc3)cc2)[nH]1)C(C)(C)C [Example 22, Methyl N-[(1S)-1-[(2R)-2-[5-[4-[4-[[4-[(1,1-dioxo-1,4-thiazinan-4-yl)methyl]phenyl]carbamoyl]phenyl]phenyl]-1H-imidazol-2-yl]pyrrolidine-1-carbonyl]-2,2-dimethyl-propyl]carbamate] | 266 nM | 263 nM | 0.55 ×10⁻⁶ cm/s |  |  | 
COC(=O)N[C@H](C(=O)N1CCC[C@H]1c1ncc(-c2ccc(-c3cccc(C(=O)Nc4ccc(CN5CCS(=O)(=O)CC5)cc4)c3)cc2)[nH]1)c1ccccc1 [Example 30, Methyl N-[(1S)-2-[(2S)-2-[5-[4-[3-[[4-[(1,1-dioxo-1,4-thiazinan-4-yl)methyl]phenyl]carbamoyl]phenyl]phenyl]-1H-imidazol-2-yl]pyrrolidin-1-yl]-2-oxo-1-phenyl-ethyl]carbamate] | 1.2 nM | 1.2 nM |  | >25 µM | 2480 nM | 2450 nM
COC(=O)N[C@@H](C(=O)N1CCC[C@H]1c1ncc(-c2ccc(-c3cccc(C(=O)Nc4ccc(CN5CCS(=O)(=O)CC5)cc4)c3)cc2)[nH]1)c1ccccc1 [Example 31, Methyl N-[(1R)-2-[(2S)-2-[5-[4-[3-[[4-[(1,1-dioxo-1,4-thiazinan-4-yl)methyl]phenyl]carbamoyl]phenyl]phenyl]-1H-imidazol-2-yl]pyrrolidin-1-yl]-2-oxo-1-phenyl-ethyl]carbamate] | 0.91 nM | 0.912 nM |  | >25 µM | 2700 nM | 2690 nM
CCN(CC)[C@@H](C(=O)N1CCC[C@H]1c1ncc(-c2ccc(-c3cccc(C(=O)Nc4ccc(CN5CCS(=O)(=O)CC5)cc4)c3)cc2)[nH]1)c1ccccc1 [Example 32, 3-[4-[2-[(2S)-1-[(2R)-2-(diethylamino)-2-phenyl-acetyl]pyrrolidin-2-yl]-1H-imidazol-5-yl]phenyl]-N-[4-[(1,1-dioxo-1,4-thiazinan-4-yl)methyl]phenyl]benzamide] | 0.21 nM | 0.209 nM |  | >25 µM | 1150 nM | 1150 nM
COC(=O)N[C@H](C(=O)N1CCOC[C@H]1c1ncc(-c2ccc(-c3ccc(C(=O)Nc4ccc(CN5CCS(=O)(=O)CC5)cc4)cc3)cc2)[nH]1)C(C)C [Example 46, Methyl N-[(1S)-1-[(3R)-3-[5-[4-[4-[[4-[(1,1-dioxo-1,4-thiazinan-4-yl)methyl]phenyl]carbamoyl]phenyl]phenyl]-1H-imidazol-2-yl]morpholine-4-carbonyl]-2-methyl-propyl]carbamate] | 0.71 nM | 0.708 nM |  | >25 µM | 19.4 nM | 19.5 nM
CC(C)(C)OC(=O)N[C@H](C(=O)N1CCOC[C@H]1c1ncc(-c2ccc(-c3ccc(C(=O)Nc4ccc(CN5CCS(=O)(=O)CC5)cc4)cc3)cc2)[nH]1)c1ccccc1 [Example 48, tert-Butyl N-[(1S)-2-[(3R)-3-[5-[4-[4-[[4-[(1,1-dioxo-1,4-thiazinan-4-yl)methyl]phenyl]carbamoyl]phenyl]phenyl]-1H-imidazol-2-yl]morpholin-4-yl]-2-oxo-1-phenyl-ethyl]carbamate] | 0.51 nM | 0.513 nM |  | >25 µM | 52.6 nM | 52.5 nM
CN(C)[C@@H](C(=O)N1CCOC[C@H]1c1ncc(-c2ccc(-c3ccc(C(=O)Nc4ccc(CN5CCS(=O)(=O)CC5)cc4)cc3)cc2)[nH]1)c1ccccc1 [Example 49, 4-[4-[2-[(3R)-4-[(2R)-2-(dimethylamino)-2-phenyl-acetyl]morpholin-3-yl]-1H-imidazol-5-yl]phenyl]-N-[4-[(1,1-dioxo-1,4-thiazinan-4-yl)methyl]phenyl]benzamide] | 0.88 nM | 0.891 nM |  | 19.7 µM | 77.8 nM | 77.6 nM
